Test results reported in patent US11382894B2, “Pharmaceutical compositions for use in the treatment of cardiovascular calcification” (INSERM (INSTITUT NATIONAL DE LA SANTE ET DE LA RECHERCHE …, priority 2017, dated 2022).

Key:
Rat aortic rings = assay: Calcium content of rat aortic rings cultured ex vivo in procalcifying conditions (O-Cresolphthalein colorimetric assay); format: cell-based; conditions: Pi 3.8 mM, 7 days; for Effect on calcium content of rat aortas (in words): procalcifying conditions; for Aortic calcium content: Pi alone = 100%
Experimental: Materials and methods: Rat aortic rings were cultured in procalcifying conditions using inorganic phosphate (Pi: 3.8 mM) for 7 days. […] Rat aortic calcium content was determined using a calcium colorimetric assay with O-Cresolphthalein.
(§1) Materials and methods: Rat aortic rings were cultured in procalcifying conditions using inorganic phosphate (Pi: 3.8 mM) for 7 days. N-acetyl-S-farnesyl-L-cysteine (AFC)—sEH phosphatase domain inhibitor—was added at concentrations, ranging from 0.1 to 10 μM (n=4-21 per group). Rat aortic calcium content was determined using a calcium colorimetric assay with O-Cresolphthalein.
Materials and methods: Rat aortic rings were cultured in procalcifying conditions using inorganic phosphate (Pi: 3.8 mM) for 7 days in absence and in presence of ebselen at a concentration of 1 and 10 μM (n=6-8 per group).

[1] = tested on: Human valvular interstitial cells (VICs); assay: Calcium content of human valvular interstitial cells cultured in procalcifying conditions (O-Cresolphthalein colorimetric assay); format: cell-based; conditions: Pi 3 mM; for VICs calcium content: mean±SEM; for Effect on calcium content of valvular interstitial cells (in words): procalcifying conditions
Experimental: as §1, with “Human valvular interstitial cells (VICs)” for “Rat aortic rings”, “3” for “3.8”, “14” for “7”, “5” for “10”, “(n=5-6” for “(n=4-21”, “VICs” for “Rat”
Materials and methods: Human valvular interstitial cells (VICs) were cultured in procalcifying conditions using inorganic phosphate (Pi: 3 mM) for 10 days. Ebselen—sEH phosphatase domain inhibitor—was added at the concentrations of 0.1 and 1 μM (n=4 per group). VICs aortic calcium content was determined using a calcium colorimetric assay with O-Cresolphthalein.

[2] = rat aortic rings, compound 1 μM
[3] = rat aortic rings, compound 10 μM

O=c1c2ccccc2[se]n1-c1ccccc1 [ebselen]
Effect on calcium content of rat aortas (in words) (Rat aortic rings): dose-dependently reduces
Aortic calcium content (Rat aortic rings; [2]): 77±8%
Aortic calcium content (Rat aortic rings; [3]): 62±7%
VICs calcium content ([1]; human VICs, 10 days, compound 0.1 μM, Pi alone = 100%): 88.8±11%
VICs calcium content ([1]; human VICs, 10 days, compound 1 μM, Pi alone = 100%): 67.6±7.2%
Effect on calcium content of valvular interstitial cells (in words) ([1]; 10 days): dose-dependently reduces

CC(=O)N[C@@H](CSC/C=C(\C)CC/C=C(\C)CCC=C(C)C)C(=O)O [AFC, N-acetyl-S-farnesyl-L-cysteine]
Effect on calcium content of rat aortas (in words) (Rat aortic rings): dose-dependently reduces
Alizarin Red and VonKossa histochemical staining (Rat aortic rings; rat aortic rings): confirmed these results
Aortic calcium content (Rat aortic rings; rat aortic rings, compound 0.1 μM): 83.6±9.1%
Aortic calcium content (Rat aortic rings; [2]): 74.2±2.9%
Aortic calcium content (Rat aortic rings; [3]): 54.5±12%
Alizarin Red staining ([1]; human VICs, 14 days): confirmed these results
VICs calcium content ([1]; human VICs, 14 days, compound 0.1 μM, Pi alone 90.3±4.6 μg): 76.7 ± 5.7 µg
VICs calcium content ([1]; human VICs, 14 days, compound 1 μM, Pi alone 90.3±4.6 μg): 51.1 ± 2.9 µg
VICs calcium content ([1]; human VICs, 14 days, compound 5 μM, Pi alone 90.3±4.6 μg): 45.8 ± 2 µg
Effect on calcium content of valvular interstitial cells (in words) ([1]; 14 days): dose-dependently reduces
